Values joined by “and” are separate entries in the source; they are usually repeats but may differ in a detail not shown here. Identical values can stand only once.
How the values were obtained:
[1] = Serum BT2 concentration by LC-MS in B16F10 tumor-bearing mice; format: in vivo; conditions: mouse, intraperitoneal, Day 17, 200 mg/kg i.p., C57BL/6J mice
Method: Mass spectrometry. Proteins in serum (50 μl) were precipitated by diluting with acetone (150 μl). The mixture was left for 14 h at 4° C. and protein was pelleted by centrifugation (10 min at 14,000 g) and supernatant removed. The solution (10 μl) was diluted into 40 μl Buffer A (H2O (0.1% formic acid)) for MS analysis. BT2 standard was prepared by diluting stock suspension of BT2 ([…], 30 mg/ml) in Buffer A (990 μl) then diluting 10 μl of this in 990 μl followed by another 1 in 100 dilution. […] LC-MS was performed using a Thermo QExactive HF, Gold C18 column (50×2.1 mm) with Solvent A (H2O (0.1% formic acid) and Solvent B (H2O:CH3CN 20:80 (0.1% formic acid) with gradient T=0, 1% B, T=26 min, 100% B, T=27 min, 100%, T=27.1, 1% B, T=30 min, 1% B; column temperature 45° C. MS1 scan, m/z 140-800, 3×10^6 ions, max IT 25 msec, resolution 120,000 and Top 5 MS2 (2×10^5 ions, max IT 50 msec, resolution 30,000 and HCD 20, 30 50V). Extracted ion chromatograms (m/z 327.134±5 ppm) were obtained for blanks, standards and samples and integrated peak areas calculated and compared).
To assess the effect of BT2 in the same model, C57BL/6J mice bearing s.c. B16F10 tumors were administered with BT2 or vehicle (200 mg/kg or 20 ml/kg, respectively, i.p.) once a day on a 5 days-on/2 days-off schedule. Treatment commenced on Day 5 (FIG. 9A). […]

p-ERK = test: Immunohistochemistry of B16F10 tumors (Day 17), p-ERK; format: in vivo, mouse; conditions: B16F10 tumors Day 17, 200 mg/kg i.p.
Description: Immunohistochemical staining and analyses. Rabbit monoclonal anti-CD3 (cat. no. ab16669; mouse, rat and human reactive), rabbit monoclonal anti-PD-1 (cat. no. ab214421), rabbit monoclonal anti-CD68 (cat. no. ab125212) antibodies were obtained from Abcam, rabbit monoclonal anti-phospho-ERK (Thr^202/Tyr^204) (cat. no. CST4370), rabbit monoclonal total ERK (cat. no. CST4695), antibodies were obtained from Cell Signaling Technology. Rabbit polyclonal anti-PD-L1 (cat. no. PA5-20343) antibody was obtained from ThermoFisher.
Formalin fixed, paraffin embedded sections were prepared from tumors. Heat-induced epitope retrieval was applied to all deparaffinized sections (4 μm sections on Superfrost slides) with citrate buffer, pH 6.0 for 5 min at 110° C. […] Integrated optical density (IOD) or area of positive staining (red chromagen) was assessed using Image-Pro Plus software (Cybernetics, Bethesda, MD, USA). Positive staining was the average of quantitation in 4-8 fields of view under 20× or 40× objectives.
To assess the effect of BT2 in the same model, C57BL/6J mice bearing s.c. B16F10 tumors were administered with BT2 or vehicle (200 mg/kg or 20 ml/kg, respectively, i.p.) once a day on a 5 days-on/2 days-off schedule. […] Tumor size on Day 17 measured using callipers (FIG. 10A) correlated with isolated weighed tumors (FIG. 10B).

CD28 = target: T1, CD28 (Macaca fascicularis, UniProt Q0PDN3); test: Surface plasmon resonance (SPR), Biacore T200; format: binding; conditions: BT2 up to 20 μM (8-point dilution series), 12° C., 20 mM HEPES, 150 mM NaCl, 5% DMSO, pH 7.5
T1 construct: purchased Sino Biological
Method: Surface plasmon resonance (SPR). Using a Biacore T200 (Cytiva), CD28 (Sino Biological) was immobilised onto a Series S sensor Chip CM5 (GE) by amine coupling to a level of ˜3000 RU on flow cells 2 and 4 at 25° C., with a flowrate of 10 μl/min. 0.2 M EDC+0.05 M NHS was injected for 420 s followed by CD28 (37.5 μg/ml in 10 mM acetate pH 5) for 450 s with the flowrate reduced to 2 μl/min. Unreacted NHS was blocked with an injection of 1 M ethanolamine-HCl pH 8.5 for 420 s. Flow cells 1 and 3 were used as the reference cells, activated and blocked as described above. Immobilisation running buffer was 20 mM HEPES, 150 mM NaCl, pH 7.5. The SPR run was performed at 12° C. with 20 mM HEPES, 150 mM NaCl, 5% DMSO, pH 7.5 as the running buffer. […] The concentration was confirmed using ^1H 1D NMR. […] Samples were injected for 60 s with a dissociation time of 60 s at a flow rate of 40 μl/min. Solvent correction was performed to correct for excluded volume effects. The integrity of the coupled CD28 was validated by injection of the known binding partner CD80 (Sino Biological) (Waite et al., 2020) (5 point dilution series with 2 μM top concentration).
In T cells, the c-jun promoter is activated by anti-CD28 engagement. CD28, a homodimeric cell surface glycoprotein, is a co-stimulatory signal required for T cell activation. The inventors investigated whether BT2 might interact with CD28. […]

T1 sequence (Q0PDN3 19-152): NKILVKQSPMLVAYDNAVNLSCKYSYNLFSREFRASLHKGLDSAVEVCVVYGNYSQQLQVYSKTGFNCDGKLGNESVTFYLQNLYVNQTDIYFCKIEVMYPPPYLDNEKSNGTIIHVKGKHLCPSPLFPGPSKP

For `CCOC(=O)Nc1ccc2c(c1)C(=O)N(CC)c1ccccc1O2` [BT2, (10-ethyl-11-oxo-10,11-dihydro-dibenzo[b,f][1,4]oxazepin-2-yl)-carbamic acid ethyl ester], the concentration at 17 day [1] was 4000 ng/mL and 12.3 µM, the “ERK phosphorylation in tumors (IHC)” value (p-ERK) was “suppression of ERK phosphorylation” and the “binding to CD28 (SPR sensorgram)” value (CD28) was “bound to CD28 in a dose-dependent manner”.
